In brackets after ≈: the same amount, converted by molar mass.
What was measured:
physchem [1] = conditions: buffer, pH 7
in vitro [2] = conditions: rat, microsomes
in vitro [3] = conditions: human, microsomes
physchem [4] = conditions: buffer, pH 2
in vivo [5] = conditions: rat, po, 50 mg/kg
in vivo [6] = conditions: rat, po, 200 mg/kg
in vivo [7] = conditions: rat, po, 50 mg/kg; remark: listed apart in the source
in vivo [8] = conditions: rat, po, 200 mg/kg; remark: listed apart in the source
in vivo [9] = conditions: rat, po, 50 mg/kg; remark: listed apart in the source
in vivo [10] = conditions: rat, po, 200 mg/kg; remark: listed apart in the source
in vivo [11] = conditions: rat, po, 50 mg/kg; remark: listed apart in the source
in vivo [12] = conditions: rat, po, 200 mg/kg; remark: listed apart in the source
in vivo [13] = conditions: rat, po, 50 mg/kg; remark: listed apart in the source
in vivo [14] = conditions: rat, po, 200 mg/kg; remark: listed apart in the source
in vivo [15] = conditions: rat, po, 50 mg/kg; remark: listed apart in the source
in vivo [16] = conditions: rat, po, 200 mg/kg; remark: listed apart in the source

SMILES	solubility (physchem [1])	half-life (in vitro [2])	half-life (in vitro [3])	solubility (physchem [4])	further results
CC(C)(O)CNC(=O)c1nc(CC2CCCCC2)c(-c2ccc(S(=O)(=O)NC(C)(C)C)c3ccccc23)s1	< 1 µM	0.783 h	1.25 h		
C[C@H](NS(=O)(=O)c1ccc(-c2sc(C(=O)NCC(C)(C)O)nc2C(=O)N2CC[C@H](F)C[C@@H]2C)c(Cl)c1Cl)C(F)(F)F	54 µM (≈ 35.8 µg/mL)	1.13 h	> 3 h	40 µM (≈ 26.5 µg/mL)	
C[C@H](NS(=O)(=O)c1ccc(-c2sc(C(=O)NCC(C)(C)O)nc2C(=O)N2CCCC[C@@H]2C)c(Cl)c1Cl)C(F)(F)F	21 µM (≈ 13.6 µg/mL)	0.817 h	> 3 h	19 µM (≈ 12.3 µg/mL)	
CC(C)(O)CNC(=O)c1nc(C(=O)N2CCCCC2)c(-c2ccc(S(=O)(=O)NC(C)(C)C)c3ccccc23)s1	1.1 µM (≈ 0.63 µg/mL)	0.2 h	1.35 h		
CC[C@H](NS(=O)(=O)c1ccc(-c2sc(C(=O)NCC(C)(C)O)nc2C(=O)N(CC)CC)c(Cl)c1Cl)C(F)(F)F	44 µM (≈ 27.9 µg/mL)	> 3 h	> 3 h	32 µM (≈ 20.3 µg/mL)	
C[C@H](NS(=O)(=O)c1ccc(-c2sc(C(=O)NCC(C)(C)O)nc2C(=O)N2CC[C@@H](F)C[C@@H]2C)c(Cl)c1Cl)C(F)(F)F	47 µM (≈ 31.2 µg/mL)			41 µM (≈ 27.2 µg/mL)	
C[C@H](NS(=O)(=O)c1ccc(-c2sc(C(=O)NCC(C)(C)O)nc2C(=O)N2CCC(F)CC2)c(Cl)c1Cl)C(F)(F)F	116 µM (≈ 75.3 µg/mL)	> 3 h	> 3 h	114 µM (≈ 74 µg/mL)	Cmax (in vivo [5]): 11200 ng/mL; Cmax (in vivo [6]): 49400 ng/mL; AUC (in vivo [7]): 31500 ng·h/mL; AUC (in vivo [8]): 282000 ng·h/mL; Cmax at 4 day (in vivo [9]): 252 ng/mL; Cmax at 4 day (in vivo [10]): 1900 ng/mL; AUC (in vivo [11]): 870 ng·h/mL; AUC (in vivo [12]): 6000 ng·h/mL; Cmax at 14 day (in vivo [13]): 417 ng/mL; Cmax at 14 day (in vivo [14]): 1280 ng/mL; AUC (in vivo [15]): 1110 ng·h/mL; AUC (in vivo [16]): 5020 ng·h/mL
C[C@H](NS(=O)(=O)c1ccc(-c2sc(C(=O)NCC(C)(C)O)nc2C(=O)N2CC3CC3C2)c(Cl)c1Cl)C(F)(F)F (some centres undefined)	8.7 µM (≈ 5.48 µg/mL)			7 µM (≈ 4.41 µg/mL)	
C[C@H](NS(=O)(=O)c1ccc(-c2sc(NC(=O)CC(C)(C)O)nc2C(=O)N2CCC(F)CC2)c(Cl)c1Cl)C(F)(F)F	15 µM (≈ 9.74 µg/mL)	2.45 h	> 3 h	16 µM (≈ 10.4 µg/mL)	
C[C@H](NS(=O)(=O)c1ccc(-c2sc(C(=O)NCC(C)(C)O)nc2C(=O)N2CCC[C@@H]2CF)c(Cl)c1Cl)C(F)(F)F	4 µM (≈ 2.6 µg/mL)			< 4 µM	
